Assay: excess molar enthalpy (molar enthalpy of mixing); xn = mol fraction of the nth substance listed
Settings: 308.15 K, 100 kPa

CS(C)=O + COC(=O)OC
Settings | excess molar enthalpy [kcal/mol]
x1 = 0.0473 | 0.0447
x1 = 0.0904 | 0.0755
x1 = 0.1297 | 0.0989
x1 = 0.1657 | 0.111
x1 = 0.2296 | 0.129
x1 = 0.3735 | 0.147
x1 = 0.5438 | 0.145
x1 = 0.6414 | 0.138
x1 = 0.7045 | 0.127
x1 = 0.7815 | 0.112
x1 = 0.8267 | 0.097
x1 = 0.8774 | 0.077
x1 = 0.9051 | 0.0631
x1 = 0.9662 | 0.0246

CC1COC(=O)O1 (stereo unspecified) + CS(C)=O
Settings | excess molar enthalpy [kcal/mol]
x2 = 0.0571 | 0.0186
x2 = 0.108 | 0.0332
x2 = 0.1538 | 0.0457
x2 = 0.195 | 0.0545
x2 = 0.2666 | 0.0703
x2 = 0.3264 | 0.0803
x2 = 0.4209 | 0.0915
x2 = 0.492 | 0.0989
x2 = 0.6857 | 0.0949
x2 = 0.7441 | 0.0856
x2 = 0.8135 | 0.0712
x2 = 0.9458 | 0.0263
x2 = 0.9721 | 0.0139

CCOC(=O)OCC + CS(C)=O
Settings | excess molar enthalpy [kcal/mol]
x2 = 0.0666 | 0.0901
x2 = 0.1249 | 0.146
x2 = 0.1764 | 0.183
x2 = 0.2221 | 0.208
x2 = 0.3635 | 0.247
x2 = 0.4614 | 0.252
x2 = 0.6315 | 0.232
x2 = 0.7199 | 0.206
x2 = 0.7741 | 0.179
x2 = 0.8371 | 0.149
x2 = 0.8727 | 0.125
x2 = 0.9115 | 0.0939
x2 = 0.932 | 0.0755
x2 = 0.9536 | 0.0547
